According to ChEMBL document CHEMBL4431369, “Synthesis and hypoglycemic activity of 9-O-(lipophilic group substituted) berberine derivatives” (Bioorg Med Chem Lett, 2016):

What was measured:
HepG2 [1] = assay: Hypoglycemic activity in human HepG2 cells assessed as increase in glucose consumption at 5 ug/ml after 48 hrs relative to BBR; assay type: functional
HepG2 [2] = assay: Hypoglycemic activity in human HepG2 cells assessed as increase in glucose consumption after 48 hrs; assay type: functional, cell-based
HepG2 [3] = assay: Cytotoxicity against human HepG2 cells assessed as reduction in cell viability after 48 hrs by MTT assay; assay type: cell-based; details: for IC50: Homo sapiens, HepG2, 48 h; for Activity: human, hepg2, 48 h
HepG2 [4] = assay: Hypoglycemic activity in human HepG2 cells assessed as increase in glucose consumption at 5 ug/ml after 48 hrs relative to control; assay type: functional
HepG2 [5] = assay: Cytotoxicity against human HepG2 cells assessed as reduction in cell viability at 125 ug/ml after 48 hrs by MTT assay; assay type: cell-based; details: hepg2, 48 h
[6] = Ratio of compound IC50 to BBR IC50 for cytotoxicity against human HepG2 cells; assay type: cell-based; details: read-out: Ratio IC50

SMILES | Activity (HepG2 [1]) [%] | Activity (HepG2 [2]) | IC50 (HepG2 [3]) [µg/mL] | Activity (HepG2 [3]) | Activity (HepG2 [4]) [%] | Activity (HepG2 [5]) | selectivity ratio [6]
COc1ccc2cc3[n+](cc2c1OC(=O)c1ccccc1[N+](=O)[O-])CCc1cc2c(cc1-3)OCO2.[Cl-] | -8.1 | Dose-dependent effect | 46.9 | Dose-dependent effect | 33.8 |  | 
COc1ccc2cc3[n+](cc2c1OC(=O)c1ccc(OC(C)=O)cc1)CCc1cc2c(cc1-3)OCO2.[Cl-] | -9.6 | Dose-dependent effect | 42.9 | Dose-dependent effect | 31.7 |  | 
CN(C)C(=N)NC(=N)N [METFORMIN] | -17.6 |  |  |  | 20 |  | 
COc1ccc2cc3[n+](cc2c1OC(=O)c1ccccc1)CCc1cc2c(cc1-3)OCO2.[Cl-] | -3.9 | Dose-dependent effect | 65.9 | Dose-dependent effect | 40 |  | 
COc1ccc2cc3[n+](cc2c1OC(=O)c1cccnc1)CCc1cc2c(cc1-3)OCO2.[Cl-] | 0 | Dose-dependent effect | 72.1 | Dose-dependent effect | 45.7 |  | 
COc1ccc2cc3[n+](cc2c1OC(=O)c1ccc([N+](=O)[O-])cc1)CCc1cc2c(cc1-3)OCO2.[Cl-] | -15.9 | Dose-dependent effect | 37.9 | Dose-dependent effect | 22.4 |  | 
COc1ccc2cc3[n+](cc2c1OC(=O)c1ccccn1)CCc1cc2c(cc1-3)OCO2.[Cl-] | 4.2 | Dose-dependent effect | 41.6 | Dose-dependent effect | 51.7 |  | 
COc1ccc2cc3[n+](cc2c1OC(=O)/C=C/c1ccccc1)CCc1cc2c(cc1-3)OCO2.[Cl-] | 33.6 | Dose-dependent effect | 52.3 | Dose-dependent effect | 94.5 |  | 
COc1ccc2cc3[n+](cc2c1OC)CCc1cc2c(cc1-3)OCO2 [BERBERINE] |  |  | 46.9 | Dose-dependent effect | 45.6 | Toxic | 
COc1ccc2cc3[n+](cc2c1OC(=O)c1ccncc1)CCc1cc2c(cc1-3)OCO2.[Cl-] | -10.6 | Dose-dependent effect | 82.5 | Dose-dependent effect | 30.2 |  | 
COc1ccc2cc3[n+](cc2c1OC(=O)c1cccc([N+](=O)[O-])c1)CCc1cc2c(cc1-3)OCO2.[Cl-] | -12.1 | Dose-dependent effect | 27.9 | Dose-dependent effect | 28 |  | 
COc1cc(/C=C/C(=O)Oc2c(OC)ccc3cc4[n+](cc23)CCc2cc3c(cc2-4)OCO3)ccc1OC(=O)c1cccnc1.[Cl-] | -16.3 | Dose-dependent effect | 91.5 | Dose-dependent effect | 21.8 | Non-Toxic | 1.95
COc1cc(/C=C/C(=O)Oc2c(OC)ccc3cc4[n+](cc23)CCc2cc3c(cc2-4)OCO3)ccc1OC(C)=O.[Cl-] | 27.4 | Dose-dependent effect | 73.5 | Dose-dependent effect | 85.5 |  | 1.57
